Reference: patent US12187727B2, “Methods for antagonizing a melanocortin 4 receptor” (Pfizer Inc., priority 2020, dated 2025)
Like-named read-outs stand apart in the source and are kept apart here.

Experiments:
[1] = molecular target: human Melanocortin-4 receptor (MC4R) (Homo sapiens (Human), UniProt P32245); assay: Functional in vitro MC4R antagonist potency assay (cAMP HTRF in CHO cells); assay type: cell-based; conditions: read-out: Kb (nM) Antagonist geometric mean
Procedure, shortened: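 CHO cells stably expressing human MC4R were preincubated 30 min at 37 °C with compound ([…], 0.1% DMSO), then stimulated 30 min with EC80 αMSH (200 nM). Intracellular cAMP quantified by HTRF competitive immunoassay and normalized to agonist-stimulated and vehicle-only wells.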

hMC4R = hMC4R (Homo sapiens (Human), UniProt P32245); assay: In vitro binding affinity assay using hMC4R (radioligand competition binding, [125I]-(Nle4, D-Phe7)-α-MSH); conditions: geometric mean
hMC4R, sequence (P32245 whole entry): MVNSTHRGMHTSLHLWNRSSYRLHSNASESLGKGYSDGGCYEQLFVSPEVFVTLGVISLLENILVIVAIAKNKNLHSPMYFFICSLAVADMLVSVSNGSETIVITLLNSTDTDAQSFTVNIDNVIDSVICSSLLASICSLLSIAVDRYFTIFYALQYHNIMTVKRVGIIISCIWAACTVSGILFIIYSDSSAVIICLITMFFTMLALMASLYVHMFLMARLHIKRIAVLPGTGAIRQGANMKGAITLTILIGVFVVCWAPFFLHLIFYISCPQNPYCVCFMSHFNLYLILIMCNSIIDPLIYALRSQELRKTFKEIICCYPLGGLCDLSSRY
Description: Example AA. In Vitro Binding Affinity Assay Using hMC4R
The binding affinity of test compounds at the […] (hMC4R) was assessed using a radioligand competition binding assay. […] Cell membranes were bulked and frozen until the assay was performed.
Compounds were solubilized in 100% dimethyl sulfoxide (DMSO) to a concentration of 30 mM. A 10-point intermediate dilution series using half log dilutions was created in 100% DMSO with a top concentration of 0.03 mM. […] The final compound range in the assay was 300 nM to 0.01 nM with a final DMSO concentration of 1%. […] The exact concentration of radioligand used for each experiment was determined by liquid scintillation counting and adjusted if necessary.
Frozen hMC4R cell membranes were thawed and Dounce homogenized. Homogenates were resuspended in assay buffer to a concentration of 2 μg per well. […] The plates were incubated for 2 hours at room temperature.
The raw data (expressed as counts per minute) were analyzed using ActivityBase (IDBS Data Management Software). […] Equilibrium dissociation constant for inhibitor of ligand and receptor interaction (Ki) values were then calculated from the IC50 values using the Cheng-Prusoff equation: Ki=IC50/(1+([L]/Kd)), where [L] is the concentration of the radioligand used in the experiment and Kd is the affinity of the radioligand (determined in separate saturation experiments).

[2] = read-out: Ki (nM) geometric mean

human Melanocortin-4 receptor (MC4R), sequence (P32245 whole entry): as above

| SMILES | Kb [1] [nM] | Ki (hMC4R; [2]) [nM] | Ki (hMC4R; read-out: Ki (nM) geometric) [nM] |
| --- | --- | --- | --- |
| COc1cc([C@@H](C)C(=O)N2CCC3(CCc4cc(-c5nnn(C)n5)c(C)nc4N3)C2)c(Cl)cn1 (single isomer, unassigned) [Example 1] | 0.049 | 0.21 |  |
| COc1cc([C@@H](C)C(=O)N2CCC3(CCc4cc(-c5nnn(C)n5)c(C)nc4N3)C2)c(Cl)cn1 (single isomer, unassigned) [Example 2] | 1.2 | 4.5 |  |
| Cc1nc2c(cc1-c1ncccn1)CC[C@@]1(CCN(C(=O)C(C)c3ccc(OC(F)F)nc3)C1)N2 (single isomer, unassigned) [Example 6] | 8.5 | 0.44 |  |
| Cc1nc2c(cc1-c1ncccn1)CC[C@@]1(CCN(C(=O)C(C)c3ccc(C(F)(F)F)cc3)C1)N2 (single isomer, unassigned) [Example 7] | 8.1 | 0.62 |  |
| Cc1nc2c(cc1-c1ncccn1)CC[C@@]1(CCN(C(=O)C(C)c3ccc(C(F)(F)F)cc3)C1)N2 (single isomer, unassigned) [Example 8] | > 95 | 76 |  |
| COc1cc([C@@H](C)C(=O)N2CCC3(CCc4cc(-c5cnn(C)c5)c(C)nc4N3)C2)c(F)cn1 (single isomer, unassigned) [Example 16] | 0.88 | 0.36 |  |
| COc1cc([C@@H](C)C(=O)N2CCC3(CCc4cc(-c5cnn(C)c5)c(C)nc4N3)C2)c(F)cn1 (single isomer, unassigned) [Example 17] | > 64 | 69 |  |
| COc1cc([C@@H](C)C(=O)N2CC[C@@]3(CCc4ccc(C)nc4N3)C2)nc(C)n1 (single isomer, unassigned) [Example 24, 2-(6-methoxy-2-methylpyrimidin-4-yl)-1-(7-methyl-3,4-dihydro-1H-spiro[1,8-naphthyridine-2,3′-pyrrolidin]-1′-yl)propan-1-one] | > 97 | 77 |  |
| COc1cc([C@@H](C)C(=O)N2CC[C@@]3(CCc4ccc(C)nc4N3)C2)nc(C)n1 (single isomer, unassigned) [Example 25, 2-(6-methoxy-2-methylpyrimidin-4-yl)-1-(7-methyl-3,4-dihydro-1H-spiro[1,8-naphthyridine-2,3′-pyrrolidin]-1′-yl)propan-1-one] | > 97 | 220 |  |
| COc1cc([C@@H](C)C(=O)N2CC[C@@]3(CCc4ccc(C)nc4N3)C2)nc(C)n1 (single isomer, unassigned) [Example 26, 2-(6-methoxy-2-methylpyrimidin-4-yl)-1-(7-methyl-3,4-dihydro-1H-spiro[1,8-naphthyridine-2,3′-pyrrolidin]-1′-yl)propan-1-one] | > 97 | 210 |  |
| Cc1nc2c(cc1-c1ncccn1)CC[C@@]1(CCN(C(=O)[C@H](C)c3ccc(Cl)cc3Cl)C1)N2 (single isomer, unassigned) [Example 34] | 4.2 | 0.9 |  |
| Cc1nc2c(cc1-c1ncccn1)CC[C@@]1(CCN(C(=O)[C@H](C)c3ccc(Cl)cc3Cl)C1)N2 (single isomer, unassigned) [Example 35] | > 95 | 82 |  |
| COc1cc([C@@H](C)C(=O)N2CC[C@@]3(CCc4cc(-c5ncccn5)c(C)nc4N3)C2)c(C(F)F)cn1 (single isomer, unassigned) [Example 36] | 0.19 | 0.52 |  |
| Cc1nc2c(cc1-c1ncccn1)CC[C@@]1(CCN(C(=O)[C@H](C)c3cc(C(F)(F)F)ncc3Cl)C1)N2 (single isomer, unassigned) [Example 38] |  | > 200 |  |
| Cc1nc2c(cc1-c1ncccn1)CC[C@@]1(CCN(C(=O)[C@H](C)c3cc(C(F)(F)F)ncc3Cl)C1)N2 (single isomer, unassigned) [Example 39] | 23 | 4.9 |  |
| COc1cc([C@@H](C)C(=O)N2CC[C@@]3(CCc4cc(-c5ncccn5)c(C)nc4N3)C2)c(C(F)(F)F)cn1 (single isomer, unassigned) [Example 41] | 0.12 | 0.53 |  |
| COc1ccc([C@@H](C)C(=O)N2CC[C@@]3(CCc4cc(-c5ncccn5)c(C)nc4N3)C2)cc1F (single isomer, unassigned) [Example 43] |  | 43 |  |
| Cc1nc(OC(F)F)cc([C@@H](C)C(=O)N2CC[C@@]3(CCc4cc(-c5ncccn5)c(C)nc4N3)C2)n1 (single isomer, unassigned) [Example 45] | 0.76 | 0.95 |  |
| COc1cc([C@](C)(F)C(=O)N2CC[C@@]3(CCc4cc(-c5ncccn5)c(C)nc4N3)C2)ccn1 (single isomer, unassigned) [Example 47] |  | 20 |  |
| Cc1nc2c(cc1-c1ncccn1)CC[C@@]1(CCN(C(=O)[C@H](C)c3ccc(OC(F)(F)F)cc3)C1)N2 (single isomer, unassigned) [Example 48] | 1.8 | 0.36 |  |
| Cc1nc2c(cc1-c1ncccn1)CC[C@@]1(CCN(C(=O)[C@H](C)c3ccc(OC(F)(F)F)cc3)C1)N2 (single isomer, unassigned) [Example 49] | > 95 | 64 |  |

| SMILES | Kb [1] [nM] | Ki (hMC4R; [2]) [nM] | Ki (hMC4R; read-out: Ki (nM) geometric) [nM] |
| --- | --- | --- | --- |
| Cc1nc2c(cc1-c1ncccn1)CC[C@@]1(CCN(C(=O)[C@H](C)c3cc(OC(F)F)ncc3Cl)C1)N2 (single isomer, unassigned) [Example 59] |  | 99 |  |
| COc1cc(OC(F)F)cc([C@@H](C)C(=O)N2CC[C@@]3(CCc4cc(-c5ncccn5)c(C)nc4N3)C2)c1 (single isomer, unassigned) [Example 61] |  | 40 |  |
| Cc1nc2c(cc1-c1ncccn1)CC[C@@]1(CCN(C(=O)C(C)c3cc(OC(F)(F)F)ncc3Cl)C1)N2 (single isomer, unassigned) [Example 63] |  | 94 |  |
| Cc1nc2c(cc1-c1ncccn1)CC[C@@]1(CCN(C(=O)[C@H](C)c3cc(OC(F)(F)F)ncc3F)C1)N2 (single isomer, unassigned) [Example 75] |  | 180 |  |
| Cc1nc2c(cc1-c1ncccn1)CC[C@@]1(CCN(C(=O)[C@H](C)c3cc(OC(F)F)ncc3F)C1)N2 (single isomer, unassigned) [Example 77] |  | 84 |  |
| Cc1nc2c(cc1-c1ncccn1)CC[C@@]1(CCN(C(=O)[C@H](C)c3cc(C(F)(F)F)ncc3F)C1)N2 (single isomer, unassigned) [Example 79] |  | > 250 |  |
| Cc1nc2c(cc1-c1ncccn1)CC[C@@]1(CCN(C(=O)[C@H](C)c3cc(N(C)C)ncc3F)C1)N2 (single isomer, unassigned) [Example 82] |  | 120 |  |
| COc1cc([C@@H](C)C(=O)N2CC[C@@]3(CCc4cc(-c5ncccn5)c(C)nc4N3)C2)cc(OC)n1 (single isomer, unassigned) [Example 84] |  | 52 |  |
| COc1ncc(Cl)c([C@@H](C)C(=O)N2CC[C@@]3(CCc4cc(-c5ncccn5)c(C)nc4N3)C2)n1 (single isomer, unassigned) [Example 85] |  | > 250 |  |
| COc1ncc(Cl)c([C@@H](C)C(=O)N2CC[C@@]3(CCc4cc(-c5ncccn5)c(C)nc4N3)C2)n1 (single isomer, unassigned) [Example 86] |  | 2.3 |  |
| COc1cc(OC)cc([C@@H](C)C(=O)N2CC[C@@]3(CCc4cc(-c5cnn(C)c5)c(C)nc4N3)C2)c1 (single isomer, unassigned) [Example 91] |  | 17 |  |
| COc1cc(OC)cc([C@@H](C)C(=O)N2CC[C@@]3(CCc4ccc(C)nc4N3)C2)c1 (single isomer, unassigned) [Example 97] |  | 100 |  |
| COc1cc([C@@H](C)C(=O)N2CC[C@@]3(CCc4ccc(C)nc4N3)C2)c(F)cn1 (single isomer, unassigned) [Example 99] |  | 81 |  |
| COc1cc([C@@H](C)C(=O)N2CC[C@@]3(CCc4ccc(C)nc4N3)C2)c(Cl)cn1 (single isomer, unassigned) [Example 101] |  | 110 |  |
| COc1cc([C@@H](C)C(=O)N2CC[C@@]3(CCc4cc(Cl)c(C)nc4N3)C2)c(F)cn1 (single isomer, unassigned) [Example 103] |  |  | > 250 |
| Cc1nc2c(cc1-c1nnn(C)n1)CC[C@@]1(CCN(C(=O)[C@H](C)c3ccc(C(F)(F)F)cc3)C1)N2 (single isomer, unassigned) [Example 110] |  |  | 29 |
| COc1cc([C@@H](C)C(=O)N2CC[C@@]3(CCc4cc(-c5nnn(C)n5)c(C)nc4N3)C2)ccn1 (single isomer, unassigned) [Example 126] |  |  | 140 |
| COc1ncc(F)c([C@@H](C)C(=O)N2CC[C@@]3(CCc4cc(-c5nc6ccccn6n5)c(C)nc4N3)C2)n1 (single isomer, unassigned) [Example 133] |  |  | 63 |
| COc1cc([C@@H](C)C(=O)N2CC[C@@]3(CCc4cc(-c5ncccn5)c(C)nc4N3)C2)cc(OC(F)F)n1 (single isomer, unassigned) [Example 193] |  |  | 28 |
| COc1cc([C@@H](C)C(=O)N2CC[C@@]3(CCc4cc(-c5nc(N(C)C)cc(C(F)(F)F)n5)c(C)nc4N3)C2)c(F)cn1 [Example 185, (2R)-1-{(2S)-6-[4-(dimethylamino)-6-(trifluoromethyl)pyrimidin-2-yl]-7-methyl-3,4-dihydro-1H-spiro[1,8-naphthyridine-2,3′-pyrrolidin]-1′-yl}-2-(5-fluoro-2-methoxypyridin-4-yl)propan-1-one] |  |  | 5.5 |
